Test results as given in patent US20240190971A1, “USE OF an anti-P-selectin antibody” (NOVARTIS AG, priority 2018, published 2024).

Experiments:
Gata1^low mice = conditions: mouse, in vivo
Experimental: Given the well described effects of inhibition of the TGF-β receptor 1 kinase on myelofibrosis in mouse models, the effects of the P-selectin inhibitor with those obtained with SB431542 are compared. In fact, contrary to inhibition of TGF-β signaling, inhibition of P-selectin has limited side effects and is therefore preferable to TGF-β inhibitors. […] Gata1^low mice are treated at 5-6 months of age (i.e. in the pre-MF stage) and analyzed at 10-12 months, an age when they are expected to have MF.
Gata1^low mice (8 mice per group) are treated with SB431542 according to the following scheme: • Group 1: Vehicle treated (2% v/v DMSO in H2O) (negative control) • Group 2: Mice receive SB431542 (60 μg/kg/day, cat no S4317-5GM, Sigma-Aldrich, St Louis, MO), as described (Spangrude G J et al, Stem Cells 2016; 34:67-82; Zingariello M et al, Blood 2013; […]
5-6 months old mice are treated daily for 5 days (Monday to Friday), then rested for 2 days and then treated again for 5 days. These treatments continue until the mice will reach 10-12 months of age. At that point they are sacrificed and analyzed for signs of progression to MF as described by Spangrude G J et al, Stem Cells 2016; 34:67-82; Zingariello M et al, Blood 2013; 121:3345-63. […]

JAK3 = JAK3 (Homo sapiens, UniProt P52333); conditions: at clinically relevant concentrations; cited from earlier work
[1] = system: broad panel of 26 kinases; conditions: tested at 200 nM; cited from earlier work
P-selectin = target: T1, P-selectin (Homo sapiens, UniProt P16109); conditions: cited from earlier work
T1 sequence (P16109 42-830): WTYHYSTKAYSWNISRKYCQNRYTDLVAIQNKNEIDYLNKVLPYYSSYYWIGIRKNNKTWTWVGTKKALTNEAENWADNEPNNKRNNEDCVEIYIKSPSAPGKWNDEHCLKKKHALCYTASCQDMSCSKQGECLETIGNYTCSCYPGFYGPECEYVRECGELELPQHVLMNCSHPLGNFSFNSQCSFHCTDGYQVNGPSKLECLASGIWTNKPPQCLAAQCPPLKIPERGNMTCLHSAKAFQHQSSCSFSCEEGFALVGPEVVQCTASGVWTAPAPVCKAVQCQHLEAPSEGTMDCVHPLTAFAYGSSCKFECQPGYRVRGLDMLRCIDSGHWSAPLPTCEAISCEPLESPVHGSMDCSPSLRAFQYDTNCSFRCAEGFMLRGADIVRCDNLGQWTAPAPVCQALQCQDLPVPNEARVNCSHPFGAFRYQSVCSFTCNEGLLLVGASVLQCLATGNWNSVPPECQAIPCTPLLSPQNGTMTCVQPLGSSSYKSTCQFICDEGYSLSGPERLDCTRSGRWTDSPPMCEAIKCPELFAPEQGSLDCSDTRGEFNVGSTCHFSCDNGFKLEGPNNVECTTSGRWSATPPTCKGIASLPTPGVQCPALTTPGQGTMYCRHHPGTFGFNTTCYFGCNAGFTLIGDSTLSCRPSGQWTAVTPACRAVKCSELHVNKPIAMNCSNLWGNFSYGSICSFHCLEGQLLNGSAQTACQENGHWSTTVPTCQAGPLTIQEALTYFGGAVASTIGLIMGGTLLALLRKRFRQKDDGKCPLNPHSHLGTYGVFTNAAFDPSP

Chain of JAK3 (P52333 whole entry): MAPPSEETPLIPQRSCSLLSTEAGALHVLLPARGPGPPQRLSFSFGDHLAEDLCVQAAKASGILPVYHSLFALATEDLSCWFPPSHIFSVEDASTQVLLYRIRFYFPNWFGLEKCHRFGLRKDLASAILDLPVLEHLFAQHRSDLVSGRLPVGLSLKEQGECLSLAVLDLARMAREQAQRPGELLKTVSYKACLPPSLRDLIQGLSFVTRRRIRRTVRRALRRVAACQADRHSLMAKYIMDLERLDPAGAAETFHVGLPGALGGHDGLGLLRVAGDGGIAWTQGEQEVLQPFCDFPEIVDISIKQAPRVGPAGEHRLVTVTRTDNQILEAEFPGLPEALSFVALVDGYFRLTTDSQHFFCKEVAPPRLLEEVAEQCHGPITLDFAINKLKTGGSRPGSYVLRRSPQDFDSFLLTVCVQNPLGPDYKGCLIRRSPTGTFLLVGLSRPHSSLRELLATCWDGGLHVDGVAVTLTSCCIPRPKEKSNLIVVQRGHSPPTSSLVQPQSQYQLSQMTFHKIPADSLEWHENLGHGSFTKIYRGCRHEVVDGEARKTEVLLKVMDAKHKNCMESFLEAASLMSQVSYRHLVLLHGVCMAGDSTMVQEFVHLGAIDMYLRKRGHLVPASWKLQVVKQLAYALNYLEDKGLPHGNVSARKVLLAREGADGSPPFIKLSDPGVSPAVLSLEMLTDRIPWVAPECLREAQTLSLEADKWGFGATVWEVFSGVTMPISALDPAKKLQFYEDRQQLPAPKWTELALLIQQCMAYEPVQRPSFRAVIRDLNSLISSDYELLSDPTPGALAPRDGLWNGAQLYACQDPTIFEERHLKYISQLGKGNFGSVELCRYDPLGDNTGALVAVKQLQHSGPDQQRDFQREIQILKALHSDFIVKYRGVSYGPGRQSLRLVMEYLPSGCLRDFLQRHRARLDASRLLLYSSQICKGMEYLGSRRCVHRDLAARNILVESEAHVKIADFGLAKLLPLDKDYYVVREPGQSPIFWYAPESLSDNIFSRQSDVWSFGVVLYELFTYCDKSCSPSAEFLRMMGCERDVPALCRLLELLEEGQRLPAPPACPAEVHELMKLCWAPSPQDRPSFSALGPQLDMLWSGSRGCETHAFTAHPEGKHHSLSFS

NC(=O)c1ccc(-c2nc(-c3ccc4c(c3)OCO4)c(-c3ccccn3)[nH]2)cc1 [SB431542]
toxicity profile (Gata1^low mice): poor toxicity profile (increased osteosclerosis)

N#CC[C@H](C1CCCC1)n1cc(-c2ncnc3[nH]ccc23)cn1 [ruxolitinib, (R)-3-(4-(7H-pyrrolo[2,3-d]pyrimidin-4-yl)-1H-pyrazol-1-yl)-3-cyclopentylpropanenitrile]
inhibition of JAK3 (JAK3): does not inhibit | inhibition [1]: < 30%

B1: crizanlizumab: humanized monoclonal antibody targeted towards P-selectin, blocks its interaction with PSGL-1 (antibody)
heavy: QVQLVQSGAEVKKPGASVKVSCKVSGYTFTSYDINWVRQAPGKGLEWMGWIYPGDGSIKYNEKFKGRVTMTVDKSTDTAYMELSSLRSEDTAVYYCARRGEYGNYEGAMDYWGQGTLVTVSSASTKGPSVFPLAPCSRSTSESTAALGCLVKDYFPEPVTVSWNSGALTSGVHTFPAVLQSSGLYSLSSVVTVTSSNFGTQTYTCNVDHKPSNTKVDKTVERKCCVECPPCPAPPVAGPSVFLFPPKPKDTLMISRTPEVTCVVVDVSHEDPEVQFNWYVDGMEVHNAKTKPREEQFNSTFRVVSVLTVVHQDWLNGKEYKCAVSNKGLPAPIEKTISKTKGQPREPQVYTLPPSREEMTKNQVSLTCLVKGFYPSDIAVEWESNGQPENNYKTTPPMLDSDGSFFLYSKLTVDKSRWQQGNVFSCSVMHEALHNHYTQKSLSLSPGK
light: DIQMTQSPSSLSASVGDRVTITCKASQSVDYDGHSYMNWYQQKPGKAPKLLIYAASNLESGVPSRFSGSGSGTDFTLTISSLQPEDFATYYCQQSDENPLTFGGGTKVEIKRTVAAPSVFIFPPSDEQLKSGTASVVCLLNNFYPREAKVQWKVDNALQSGNSQESVTEQDSKDSTYSLSSTLTLSKADYEKHKVYACEVTHQGLSSPVTKSFNRGEC
blocking of P-selectin interaction with PSGL-1 (P-selectin): blocks its interaction with P-selectin glycoprotein ligand 1 (PSGL-1) | dissociation of already formed P-selectin/PSGL-1 complexes (P-selectin): dissociates P-selectin/PSLG-1 complexes that have already formed
